How the values were obtained:
[1] = biological target: T1, human recombinant histamine H1 receptor (Homo sapiens, UniProt P35367); assay: Histamine H1 radioligand binding ([3H]Pyrilamine); settings: compound at 1 μM; read-out: Histamine Binding (1 μM) H1, percent inhibition of specific binding
T1 construct: expressed in transfected cells; host or cells: CHO cells
Description: To evaluate in radioligand binding assays the activity of compounds of the invention, human recombinant histamine H1 receptor expressed in Chinese hamster ovary (CHO) cells (De Backer, M. D. et al., Biochem. Biophys. Res. Comm. 197(3):1601, 1993) in a modified Tris-HCl buffer (50 mM Tris-HCl, pH 7.4, 2 mM MgCl2, 100 mM NaCl, 250 mM Sucrose) was used. Compounds of the invention were incubated with 1.2 nM [^3H]Pyrilamine for 180 min. at 25° C. Non-specific binding was estimated in the presence of 1 μM pyrilamine. Receptor proteins were filtered and washed, the filters were then counted to determine [^3H]Pyrilamine specifically bound. Compounds were screened at 1 μM or lower, using 1% DMSO as vehicle. Biochemical assay results are presented as the percent inhibition of specific binding in Table 6.

[2] = biological target: T2, human recombinant histamine H2 receptor (Homo sapiens, UniProt P25021); assay: Histamine H2 radioligand binding ([125I]Aminopotentidine); settings: compound at 1 μM; read-out: Histamine Binding (1 μM) H2, percent inhibition of specific binding
T2 construct: expressed in transfected cells; host or cells: CHO-K1 cells
Description: To evaluate in radioligand binding assays the activity of compounds of the invention, human recombinant histamine H2 receptor expressed in Chinese hamster ovary (CHO) K1 cells (Ruat, M., Proc. Natl. Acad. Sci. USA. 87(5):1658, 1990) in a 50 mM Phosphate buffer, pH 7.4 was used. Compounds of the invention were incubated with 0.1 nM [^125I]Aminopotentidine for 120 min. at 25° C. Non-specific binding was estimated in the presence of 3 μM Tiotidine. Receptor proteins were filtered and washed, the filters were then counted to determine [^125I]Aminopotentidine specifically bound. Compounds were screened at 1 μM or lower, using 1% DMSO as vehicle. Biochemical assay results are presented as the percent inhibition of specific binding in Table 6.

[3] = biological target: T3, human recombinant dopamine D2L receptor (Homo sapiens, UniProt P14416); assay: Dopamine D2L radioligand binding ([3H]Spiperone); settings: compound at 1 μM; read-out: Dopamine (1 μM) D2L, percent inhibition of specific binding
T3 construct: expressed in transfected cells; host or cells: CHO cells
Description: To evaluate in radioligand binding assays the activity of compounds of the invention, human recombinant dopamine D2L receptor expressed in Chinese hamster ovary (CHO) cells (Grandy, D. K. et al. Proc. Natl. Acad. Sci. USA. 86:9762, 1989; Hayes, G. et al., Mol. Endocrinol. 6:920, 1992) in a modified Tris-HCl buffer (50 mM Tris-HCl, pH 7.4, 1.4 mM Ascorbic Acid, 0.001% BSA, 150 mM NaCl) was used. Compounds of the invention were incubated with 0.16 nM [^3H]Spiperone for 120 min. at 25° C. Non-specific binding was estimated in the presence of 10 μM Haloperidol. Receptor proteins were filtered and washed, the filters were then counted to determine [^3H]Spiperone specifically bound. Compounds were screened at 1 μM or lower, using 1% DMSO as vehicle. Biochemical assay results are presented as the percent inhibition of specific binding in Table 5.

[4] = biological target: T4, human recombinant serotonin (5-Hydroxytryptamine) 5-HT2A receptor (Homo sapiens, UniProt P28223); assay: Serotonin 5-HT2A radioligand binding ([3H]Ketanserin); settings: compound at 1 μM; read-out: Serotonin (1 μM) 5-HT2A, percent inhibition of specific binding
T4 construct: expressed in transfected cells; host or cells: CHO-K1 cells
Description: To evaluate in radioligand binding assays the activity of compounds of the invention, human recombinant serotonin (5-Hydroxytryptamine) 5-HT2A receptor expressed in Chinese hamster ovary (CHO-K1) cells (Bonhaus, D. W. et al. Br. J. Pharmacol. 115:622, 1995; Saucier, C. and Albert, P. R., J. Neurochem. 68:1998, 1997) in a 50 mM Tris-HCl buffer, pH 7.4, was used. Compounds of the invention were incubated with 0.5 nM [^3H]Ketanserin for 60 min. at 25° C. Non-specific binding was estimated in the presence of 1 μM Mianserin. Receptor proteins were filtered and washed, the filters were then counted to determine [^3H]Ketanserin specifically bound. Compounds were screened at 1 μM or lower, using 1% DMSO as vehicle. Biochemical assay results are presented as the percent inhibition of specific binding in Table 6.

[5] = biological target: T5, human recombinant serotonin (5-Hydroxytryptamine) 5-HT2C receptor (Homo sapiens, UniProt P28335); assay: Serotonin 5-HT2C radioligand binding ([3H]Mesulergine); settings: compound at 1 μM; read-out: Serotonin (1 μM) 5-HT2C, percent inhibition of specific binding
T5 construct: expressed in transfected cells; host or cells: CHO-K1 cells
T5 sequence (P28335 33-458): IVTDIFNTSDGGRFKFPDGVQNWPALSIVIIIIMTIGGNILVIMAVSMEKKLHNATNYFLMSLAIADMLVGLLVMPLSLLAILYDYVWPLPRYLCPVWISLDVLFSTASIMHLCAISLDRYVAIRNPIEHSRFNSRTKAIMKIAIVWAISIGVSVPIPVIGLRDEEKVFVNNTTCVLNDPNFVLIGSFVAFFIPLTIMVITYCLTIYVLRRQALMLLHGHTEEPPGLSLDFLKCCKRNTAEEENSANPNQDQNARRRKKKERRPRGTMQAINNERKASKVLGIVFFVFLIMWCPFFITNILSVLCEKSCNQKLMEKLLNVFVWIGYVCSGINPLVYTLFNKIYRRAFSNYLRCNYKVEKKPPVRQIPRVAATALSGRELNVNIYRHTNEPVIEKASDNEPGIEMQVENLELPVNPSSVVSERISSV
Description: To evaluate in radioligand binding assays the activity of compounds of the invention, human recombinant serotonin (5-Hydroxytryptamine) 5-HT2C receptor expressed in Chinese hamster ovary (CHO-K1) cells (Wolf, W. A. and Schutz, J. S., J. Neurochem. 69:1449, 1997) in a modified Tris-HCl buffer (50 mM Tris-HCl, pH 7.4, 0.1% Ascorbic Acid, 10 μM Pargyline) was used. Compounds of the invention were incubated with 1 nM [^3H]Mesulergine for 60 min. at 25° C. Non-specific binding was estimated in the presence of 1 μM Mianserin. Receptor proteins were filtered and washed, the filters were then counted to determine [^3H]Mesulergine specifically bound. Compounds were screened at 1 μM or lower, using 1% DMSO as vehicle. Biochemical assay results are presented as the percent inhibition of specific binding in Table 6.

[6] = biological target: T6, human recombinant serotonin (5-Hydroxytryptamine) 5-HT6 receptor (Homo sapiens, UniProt P50406); assay: Serotonin 5-HT6 radioligand binding ([3H]LSD); settings: compound at 1 μM; read-out: Serotonin (1 μM) 5-HT6, percent inhibition of specific binding
T6 construct: expressed in transfected cells; host or cells: human HeLa cells
Description: To evaluate in radioligand binding assays the activity of compounds of the invention, human recombinant serotonin (5-Hydroxytryptamine) 5-HT6 receptor expressed in human HeLa cells (Monsma, F. J. Jr. et al., Mol. Pharmacol. 43:320, 1993) in a modified Tris-HCl buffer (50 mM Tris-HCl, pH 7.4, 150 mM NaCl, 2 mM Ascorbic Acid, 0.001% BSA) was used. Compounds of the invention were incubated with 1.5 nM [3H]Lysergic acid diethylamide (LSD) for 120 min. at 37° C. Non-specific binding was estimated in the presence of 5 μM Serotonin (5-HT). Receptor proteins were filtered and washed, the filters were then counted to determine [3H]LSD specifically bound. Compounds were screened at 1 μM or lower, using 1% DMSO as vehicle. Biochemical assay results are presented as the percent inhibition of specific binding in Table 6.

[7] = test system: brain cells (neurons); settings: preclinical models of Alzheimer's disease and Huntington's disease; cited from earlier work
[8] = test system: cells treated with the cell toxin ionomycin; settings: cited from earlier work
[9] = test system: neurite outgrowth and neurogenesis; settings: cited from earlier work
[10] = after treatment with the cell toxin ionomycin

T6 sequence (P50406 whole entry): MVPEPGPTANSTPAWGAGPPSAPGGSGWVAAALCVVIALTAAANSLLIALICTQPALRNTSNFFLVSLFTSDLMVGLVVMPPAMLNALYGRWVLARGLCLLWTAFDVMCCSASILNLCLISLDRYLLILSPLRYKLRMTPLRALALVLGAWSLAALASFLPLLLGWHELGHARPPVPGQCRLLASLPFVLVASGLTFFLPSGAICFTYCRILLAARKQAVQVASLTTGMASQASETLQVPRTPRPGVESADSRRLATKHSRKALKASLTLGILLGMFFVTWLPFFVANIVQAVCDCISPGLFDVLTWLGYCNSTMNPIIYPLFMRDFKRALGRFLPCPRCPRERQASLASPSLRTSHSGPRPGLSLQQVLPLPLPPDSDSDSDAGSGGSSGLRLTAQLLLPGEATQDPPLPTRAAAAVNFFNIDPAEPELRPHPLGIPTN
T3 sequence (P14416 whole entry): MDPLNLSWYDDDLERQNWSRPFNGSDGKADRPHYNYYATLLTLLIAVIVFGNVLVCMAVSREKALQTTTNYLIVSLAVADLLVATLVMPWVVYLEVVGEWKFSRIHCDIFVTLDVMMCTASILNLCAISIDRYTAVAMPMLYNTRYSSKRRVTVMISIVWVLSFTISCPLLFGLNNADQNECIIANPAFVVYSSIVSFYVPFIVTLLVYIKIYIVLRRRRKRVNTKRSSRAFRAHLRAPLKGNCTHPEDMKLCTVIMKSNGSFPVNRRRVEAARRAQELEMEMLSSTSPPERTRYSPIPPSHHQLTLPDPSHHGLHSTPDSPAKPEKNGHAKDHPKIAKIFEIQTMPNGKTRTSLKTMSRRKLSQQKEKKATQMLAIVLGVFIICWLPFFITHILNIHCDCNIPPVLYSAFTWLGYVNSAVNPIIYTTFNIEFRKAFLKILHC
T4 sequence (P28223 whole entry): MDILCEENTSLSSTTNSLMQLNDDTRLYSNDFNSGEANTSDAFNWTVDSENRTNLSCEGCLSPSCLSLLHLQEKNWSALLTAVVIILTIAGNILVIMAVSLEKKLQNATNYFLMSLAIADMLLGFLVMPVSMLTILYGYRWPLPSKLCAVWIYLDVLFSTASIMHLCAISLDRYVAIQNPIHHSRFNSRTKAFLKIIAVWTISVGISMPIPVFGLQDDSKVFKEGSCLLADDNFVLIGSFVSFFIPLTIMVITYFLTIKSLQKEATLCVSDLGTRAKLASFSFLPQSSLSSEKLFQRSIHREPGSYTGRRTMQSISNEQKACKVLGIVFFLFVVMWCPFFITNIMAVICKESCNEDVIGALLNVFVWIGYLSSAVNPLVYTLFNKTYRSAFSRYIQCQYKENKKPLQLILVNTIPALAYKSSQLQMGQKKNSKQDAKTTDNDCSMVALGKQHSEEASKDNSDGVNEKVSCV
T1 sequence (P35367 whole entry): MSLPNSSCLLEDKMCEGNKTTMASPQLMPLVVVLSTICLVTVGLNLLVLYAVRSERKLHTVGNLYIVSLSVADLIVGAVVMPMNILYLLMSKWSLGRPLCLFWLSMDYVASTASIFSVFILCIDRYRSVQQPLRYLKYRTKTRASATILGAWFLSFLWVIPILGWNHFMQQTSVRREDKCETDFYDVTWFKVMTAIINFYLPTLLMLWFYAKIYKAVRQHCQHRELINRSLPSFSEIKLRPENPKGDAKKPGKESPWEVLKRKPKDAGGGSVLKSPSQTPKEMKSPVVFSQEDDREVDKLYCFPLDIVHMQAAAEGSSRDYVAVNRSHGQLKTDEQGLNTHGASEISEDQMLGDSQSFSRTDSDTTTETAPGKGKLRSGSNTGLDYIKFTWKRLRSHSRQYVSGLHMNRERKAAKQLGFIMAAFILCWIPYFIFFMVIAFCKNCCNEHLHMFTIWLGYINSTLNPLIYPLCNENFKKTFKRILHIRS
T2 sequence (P25021 whole entry): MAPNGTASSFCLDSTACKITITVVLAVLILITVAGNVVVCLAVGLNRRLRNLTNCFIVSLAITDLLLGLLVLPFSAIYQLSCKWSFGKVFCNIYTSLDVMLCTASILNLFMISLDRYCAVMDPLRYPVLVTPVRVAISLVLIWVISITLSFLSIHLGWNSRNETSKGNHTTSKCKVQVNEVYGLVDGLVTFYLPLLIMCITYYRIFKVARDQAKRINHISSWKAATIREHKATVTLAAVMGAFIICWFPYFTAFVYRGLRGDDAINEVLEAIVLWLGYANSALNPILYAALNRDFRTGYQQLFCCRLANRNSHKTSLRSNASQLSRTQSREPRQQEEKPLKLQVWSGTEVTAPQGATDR

Compound | inhibition at 1 µM [1] [%] | inhibition at 1 µM [2] [%] | inhibition at 1 µM [3] [%] | inhibition at 1 µM [4] [%] | inhibition at 1 µM [5] [%] | inhibition at 1 µM [6] [%] | death of brain cells (neurons) [7] | mitochondrial function [8, 10] | number of surviving cells [8, 10] | mitochondrial function of cells ([8]; setting of cellular stress) | neurite outgrowth and neurogenesis [9]
COc1ccc(C#Cn2c3c(c4cc(C)ccc42)CCN(C)CC3)cc1F [Compound No. 284, 6-((3-fluoro-4-methoxyphenyl)ethynyl)-3,9-dimethyl-1,2,3,4,5,6-hexahydroazepino[4,5-b]indole] | 11 | 4 | 11 | 94 | 100 | 42 | – | – | – | – | –
Cc1ccc2c(c1)c1c(n2CCc2ccc(C)nc2)CCN(C)C1 [Dimebon, dimebon] | – | – | – | – | – | – | inhibit the death of brain cells (neurons) | improved mitochondrial function | increased the number of surviving cells | improve the mitochondrial function of cells in the setting of cellular stress with very high potency | promote neurite outgrowth and neurogenesis

— patent US9481676B2, “Azepino[4,5-B]indoles and methods of use” (Medivation Technologies, Inc., priority 2008, dated 2016)
